Source: ChEMBL document CHEMBL5357033, “Discovery of Diverse Sesquiterpenoids from Crossiella cryophila through Genome Mining and NMR Tracking” (J Nat Prod, 2024)

How the values were obtained:
MDA-MB-231 = assay: Anticancer activity against human MDA-MB-231 cells assessed as reduction in cell viability at 40 uM measured after 48 hrs by CCK-8 method relative to control; type: functional
Pseudomonas syringae = assay: Antimicrobial activity against Pseudomonas syringae ATCC-BAA-2502 assessed as reduction in microbial growth by broth microdilution method; type: functional
Shigella sonnei = assay: Antimicrobial activity against Shigella sonnei ZD12 assessed as reduction in microbial growth by broth microdilution method; type: functional
Xanthomonas oryzae = assay: Antimicrobial activity against Xanthomonas oryzae ATCC 35933 assessed as reduction in microbial growth by broth microdilution method; type: functional
MCF7 = assay: Anticancer activity against human MCF7 cells assessed as reduction in cell viability at 40 uM measured after 48 hrs by CCK-8 method relative to control; type: functional
RAW264.7 [1] = assay: Antiinflammatory activity in mouse RAW264.7 assessed as reduction in LPS-induced NO production incubated for 24 hrs by Griess method relative to control; type: functional; set-up: concentration or dose not given beside the values
HepG2 = assay: Anticancer activity against human HepG2 cells assessed as reduction in cell viability at 40 uM measured after 48 hrs by CCK-8 method relative to control; type: functional
Enterococcus = assay: Antimicrobial activity against Vancomycin-resistant Enterococci assessed as reduction in microbial growth by broth microdilution method; type: functional
Escherichia coli = assay: Antimicrobial activity against Escherichia coli CGMCC 1.3344 assessed as reduction in microbial growth by broth microdilution method; type: functional
A549 = assay: Anticancer activity against human A549 cells assessed as reduction in cell viability at 40 uM measured after 48 hrs by CCK-8 method relative to control; type: functional
RAW264.7 [2] = assay: Cytotoxicity against mouse RAW264.7 cells measured after 24hrs by CCK-8 method relative to control; type: toxicity, cell-based; set-up: concentration or dose not given beside the values; conditions: raw264.7, 24 h
Staphylococcus capitis = assay: Antimicrobial activity against Staphylococcus capitis W7 assessed as reduction in microbial growth by broth microdilution method; type: functional
SW480 = assay: Anticancer activity against human SW480 cells assessed as reduction in cell viability at 40 uM measured after 48 hrs by CCK-8 method relative to control; type: functional
Paracidovorax avenae = assay: Antimicrobial activity against Acidovorax avenae ATCC 19307 assessed as reduction in microbial growth by broth microdilution method; type: functional
Staphylococcus aureus [3] = assay: Antimicrobial activity against Staphylococcus aureus LV-B1 assessed as reduction in microbial growth by broth microdilution method; type: functional
Klebsiella pneumoniae = assay: Antimicrobial activity against Klebsiella pneumoniae W5 assessed as reduction in microbial growth by broth microdilution method; type: functional
Bacillus subtilis = assay: Antimicrobial activity against Bacillus subtilis ATCC 6051 assessed as reduction in microbial growth by broth microdilution method; type: functional
Micrococcus luteus = assay: Antimicrobial activity against Micrococcus luteus ATCC 4685 assessed as reduction in microbial growth by broth microdilution method; type: functional
Staphylococcus aureus [4] = assay: Antimicrobial activity against methicillin resistant Staphylococcus aureus assessed as reduction in microbial growth by broth microdilution method; type: functional

Row | Structure (SMILES) | Activity (MDA-MB-231) [%] | MIC (Pseudomonas syringae) [µg/mL] | MIC (Shigella sonnei) [µg/mL] | MIC (Xanthomonas oryzae) [µg/mL] | Activity (MCF7) [%] | Activity (RAW264.7 [1]) [%] | Activity (HepG2) [%] | MIC (Enterococcus) [µg/mL] | MIC (Escherichia coli) [µg/mL] | Activity (A549) [%] | Activity (RAW264.7 [2]) [%] | MIC (Staphylococcus capitis) [µg/mL] | Activity (SW480) [%] | MIC (Paracidovorax avenae) [µg/mL] | MIC (Staphylococcus aureus [3]) [µg/mL] | MIC (Klebsiella pneumoniae) [µg/mL] | MIC (Bacillus subtilis) [µg/mL] | MIC (Micrococcus luteus) [µg/mL] | MIC (Staphylococcus aureus [4]) [µg/mL]
1 | CC1=C[C@@H]2[C@@H](C(C)C)CC[C@@](C)(O)[C@@H]2C[C@@H]1O | -7.21 | > 128 | > 128 | > 128 | 6.01 | -1.33 | -1.38 | > 128 | > 128 | 0.28 | 82.75 | > 128 | -7.85 | > 128 | > 128 | > 128 | > 128 | > 128 | > 128
2 | C[C@H]1C[C@H](O)[C@@H]2[C@H]3[C@H]1OC(C)(C)[C@@H]3CC[C@@]2(C)O | 1.66 | > 128 | > 128 | > 128 | 8.24 | 0.67 | -8.63 | > 128 | > 128 | 0.07 | 84.88 | > 128 | -5.32 | > 128 | > 128 | > 128 | > 128 | > 128 | > 128
3 | C/C1=C\CC/C(CO)=C\[C@H]2[C@H](C[C@H]1O)C2(C)C | 6.53 | > 128 | > 128 | > 128 | 15.37 | -1.42 | 6.04 | > 128 | > 128 | 7.59 | 83.59 | > 128 | 46.36 | > 128 | > 128 | > 128 | > 128 | > 128 | > 128
4 | C/C1=C\CC/C(C=O)=C\[C@H]2[C@H](C[C@H]1O)C2(C)C | -11.44 | > 128 | > 128 | > 128 | 1.32 | 1.33 | -8.84 | > 128 | > 128 | -2.39 | 89.61 | > 128 | -28.68 | > 128 | > 128 | > 128 | > 128 | > 128 | > 128
5 | CC1(C)[C@H]2/C=C(/CO)CC[C@@H]3O[C@@]3(C)CC[C@@H]21 | 4.47 | > 128 | > 128 | > 128 | 14.53 | -6.95 | -11.68 | > 128 | > 128 | 13 | 8.25 | > 128 | -7.55 | > 128 | > 128 | > 128 | > 128 | > 128 | > 128
6 | CC1=C[C@@H]2[C@@H](C(C)C)CC[C@@](C)(O)[C@@H]2CC1=O | 20.55 | > 128 | > 128 | > 128 | 13.45 | -11.3 | -9.79 | > 128 | > 128 | 8.55 | 82.62 | > 128 | -22.26 | > 128 | > 128 | > 128 | > 128 | > 128 | > 128
7 | C[C@@H]1C(=O)C[C@@H]2[C@H]3[C@H]1OC(C)(C)[C@H]3CC[C@@]2(C)O | -3.76 | > 128 | > 128 | > 128 | 9.07 | -1.87 | -1.81 | > 128 | > 128 | 0.67 | 91.87 | > 128 | 13.67 | > 128 | > 128 | > 128 | > 128 | > 128 | > 128
8 | CC1(C)[C@H]2[C@@H]1CC[C@@]1(C)[C@H](O)CC[C@](O)(CO)[C@H]21 | 27.39 | > 128 | > 128 | > 128 | 11.1 | -3.05 | 3.99 | > 128 | > 128 | 0.34 | 81.69 | > 128 | 7.24 | > 128 | > 128 | > 128 | > 128 | > 128 | > 128
9 | C[C@H]1CC[C@@H](O)[C@]2(C)CC[C@@H](C(C)(C)O)[C@H](O)[C@@H]12 | -2.4 | > 128 | > 128 | > 128 | 5.53 | 3.3 | -2.3 | > 128 | > 128 | 0.97 | 88.18 | > 128 | 10.33 | > 128 | > 128 | > 128 | > 128 | > 128 | > 128
10 | CN(C)[C@@H]1C(O)=C(C(N)=O)C(=O)[C@@]2(O)C(O)=C3C(=O)c4c(O)cccc4[C@@](C)(O)[C@H]3C[C@@H]12 [TETRACYCLINE] |  | > 128 | 8 | 8 |  |  |  | 2 | 2 |  |  | 4 |  | 4 | 0.5 | > 128 | 2 | 2 | 4
11 | C[C@H]1CC[C@@H]2[C@H]3[C@H]1OC(C)(C)[C@@H]3CC[C@@]2(C)O (relative stereo) | 4.18 | > 128 | > 128 | > 128 | 14.7 | -7.88 | -8.24 | > 128 | > 128 | 12.03 | 94.77 | > 128 | -11.92 | > 128 | > 128 | > 128 | > 128 | > 128 | > 128
12 | CC1(C)[C@H]2/C=C(/C=O)CC[C@@H]3O[C@@]3(C)CC[C@@H]21 | -2.33 | > 128 | > 128 | > 128 | 16.05 | -2.46 | -4.51 | > 128 | > 128 | 2.4 | 81.51 | > 128 | -21.6 | > 128 | > 128 | > 128 | > 128 | > 128 | > 128
13 | CC1=C[C@H]2[C@H](C(C)C)CC[C@@](C)(O)[C@H]2C[C@H]1O | -8.69 | > 128 | > 128 | > 128 | 12.99 | -6.33 | -5.25 | > 128 | > 128 | 5.64 | 87.41 | > 128 | 4.58 | > 128 | > 128 | > 128 | > 128 | > 128 | > 128
14 | CC1=C[C@@H]2[C@@H](C(C)C)CC[C@@](C)(O)[C@@H]2CC1 | 32.06 | > 128 | > 128 | > 128 | 18.49 | -4.95 | 4.12 | > 128 | > 128 | 12.06 | 90.3 | > 128 | 6.82 | > 128 | > 128 | > 128 | > 128 | > 128 | > 128
